Drawing on ChEMBL document CHEMBL5465560, “Selectivity Literature for EUbOPEN Chemogenomic Library” (2024), this text covers % of control and % of inhibition for five compounds.

The target in assay [1] is T1, Serine/threonine-protein kinase ULK1 (Homo sapiens) (UniProt O75385).
T1 sequence (whole entry): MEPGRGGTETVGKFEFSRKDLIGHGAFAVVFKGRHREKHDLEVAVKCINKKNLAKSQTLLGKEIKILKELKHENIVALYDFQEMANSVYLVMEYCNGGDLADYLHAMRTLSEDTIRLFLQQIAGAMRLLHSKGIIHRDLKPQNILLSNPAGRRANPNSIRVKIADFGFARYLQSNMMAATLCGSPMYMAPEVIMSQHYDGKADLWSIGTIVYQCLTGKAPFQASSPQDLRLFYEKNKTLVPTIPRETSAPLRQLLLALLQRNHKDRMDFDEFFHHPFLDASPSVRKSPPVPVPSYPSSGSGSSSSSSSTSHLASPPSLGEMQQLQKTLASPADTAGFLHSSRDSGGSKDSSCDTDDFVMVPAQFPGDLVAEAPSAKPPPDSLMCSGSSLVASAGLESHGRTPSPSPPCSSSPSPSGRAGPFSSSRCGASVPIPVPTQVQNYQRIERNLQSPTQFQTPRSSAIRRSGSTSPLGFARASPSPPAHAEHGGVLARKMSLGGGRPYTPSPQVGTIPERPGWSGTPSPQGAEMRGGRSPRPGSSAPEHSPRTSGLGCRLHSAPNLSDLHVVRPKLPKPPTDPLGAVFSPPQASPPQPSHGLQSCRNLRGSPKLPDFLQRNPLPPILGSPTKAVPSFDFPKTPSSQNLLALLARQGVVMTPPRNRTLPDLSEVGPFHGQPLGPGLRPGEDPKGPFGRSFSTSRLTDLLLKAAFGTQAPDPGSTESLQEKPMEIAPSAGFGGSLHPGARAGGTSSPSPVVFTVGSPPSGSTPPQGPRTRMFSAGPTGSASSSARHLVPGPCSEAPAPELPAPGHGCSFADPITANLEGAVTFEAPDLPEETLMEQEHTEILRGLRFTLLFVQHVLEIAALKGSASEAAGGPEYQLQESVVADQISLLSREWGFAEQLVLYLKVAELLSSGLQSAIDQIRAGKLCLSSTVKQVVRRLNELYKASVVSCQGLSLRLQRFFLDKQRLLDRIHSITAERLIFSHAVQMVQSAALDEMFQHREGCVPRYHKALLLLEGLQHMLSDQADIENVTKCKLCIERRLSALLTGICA
The assay is described as follows: Selectivity interaction (KinomeScan (DiscoverX)) EUB0000595a ULK1. The note with it: at 10 µM.

The target of assay [2] is Serine/threonine-protein kinase mTOR (Homo sapiens, UniProt P42345). The experiment in a line: Selectivity interaction (KinomeScan (DiscoverX)) EUB0000595a MTOR. The note with it: at 10 µM.
The target of assay [3] is T2, Tyrosine-protein kinase ZAP-70 (Homo sapiens) (UniProt P43403).
T2 sequence (whole entry): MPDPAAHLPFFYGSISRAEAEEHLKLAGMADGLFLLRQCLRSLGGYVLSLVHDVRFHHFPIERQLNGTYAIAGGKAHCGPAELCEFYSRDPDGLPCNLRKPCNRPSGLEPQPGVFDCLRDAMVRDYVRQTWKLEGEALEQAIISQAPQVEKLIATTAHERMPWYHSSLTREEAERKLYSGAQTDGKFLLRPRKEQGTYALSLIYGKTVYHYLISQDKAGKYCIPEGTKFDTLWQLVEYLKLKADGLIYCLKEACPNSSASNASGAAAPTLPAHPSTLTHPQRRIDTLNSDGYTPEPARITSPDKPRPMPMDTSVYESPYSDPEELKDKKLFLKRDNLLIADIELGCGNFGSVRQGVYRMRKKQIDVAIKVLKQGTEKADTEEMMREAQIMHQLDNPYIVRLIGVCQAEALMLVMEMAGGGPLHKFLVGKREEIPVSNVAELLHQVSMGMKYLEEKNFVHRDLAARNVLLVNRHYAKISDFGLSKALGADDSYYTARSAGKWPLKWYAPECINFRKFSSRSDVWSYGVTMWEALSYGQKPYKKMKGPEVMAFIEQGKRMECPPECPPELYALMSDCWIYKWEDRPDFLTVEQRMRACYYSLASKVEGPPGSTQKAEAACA
The experiment in a line: Selectivity interaction (ActivX KiNativ screen (ex vivo kinase selectivity in human PBMCs)) EUB0001619a ZAP70. It counts as cell-based. Conditions: PBMC, at 1 µM.

Assay [4] addresses Tyrosine-protein kinase Srms (Homo sapiens) (UniProt Q9H3Y6). The experiment in a line: Selectivity interaction (KinomeScan (DiscoverX)) EUB0000607a SRMS. Conditions: at 10 µM.
The target of assay [5] is Casein kinase II subunit alpha' (Homo sapiens) (UniProt P19784). The note with it: at 10 µM.
In assay [6] the target is Ribosomal protein S6 kinase alpha-1 (Homo sapiens, UniProt Q15418). The note with it: at 10 µM.
The target in assay [7] is T3, Serine/threonine-protein kinase TAO3 (Homo sapiens) (UniProt Q9H2K8).
T3 sequence (whole entry): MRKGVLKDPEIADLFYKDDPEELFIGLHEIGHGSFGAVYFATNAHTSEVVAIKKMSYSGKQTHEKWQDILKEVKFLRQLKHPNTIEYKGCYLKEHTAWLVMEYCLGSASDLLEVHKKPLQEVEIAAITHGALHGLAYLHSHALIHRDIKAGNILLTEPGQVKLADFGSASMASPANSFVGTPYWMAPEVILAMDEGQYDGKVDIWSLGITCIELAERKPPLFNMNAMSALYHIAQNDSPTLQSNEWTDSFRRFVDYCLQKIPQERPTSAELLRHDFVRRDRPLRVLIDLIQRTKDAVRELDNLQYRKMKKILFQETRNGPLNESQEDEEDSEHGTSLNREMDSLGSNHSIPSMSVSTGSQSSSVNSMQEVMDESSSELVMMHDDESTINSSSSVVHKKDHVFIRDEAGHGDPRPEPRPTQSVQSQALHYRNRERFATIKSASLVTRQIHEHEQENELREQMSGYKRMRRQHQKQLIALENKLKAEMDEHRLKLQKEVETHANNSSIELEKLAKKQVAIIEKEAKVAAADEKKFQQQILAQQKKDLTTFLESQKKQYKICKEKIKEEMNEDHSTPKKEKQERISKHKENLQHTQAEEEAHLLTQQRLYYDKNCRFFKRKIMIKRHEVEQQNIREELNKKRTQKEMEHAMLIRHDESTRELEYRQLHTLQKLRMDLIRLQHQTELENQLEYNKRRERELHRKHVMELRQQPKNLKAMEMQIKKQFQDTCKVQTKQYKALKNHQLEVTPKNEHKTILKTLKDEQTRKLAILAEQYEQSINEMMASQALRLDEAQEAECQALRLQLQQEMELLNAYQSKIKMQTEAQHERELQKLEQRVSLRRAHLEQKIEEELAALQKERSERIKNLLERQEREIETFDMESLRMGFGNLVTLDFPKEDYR
The assay is described as follows: Selectivity interaction (ProQinase) EUB0000171b TAOK3.

The target of assay [8] is Serine/threonine-protein kinase PAK 2 (Homo sapiens) (UniProt Q13177). The assay is described as follows: Selectivity interaction (ProQinase) EUB0000171b PAK2.
Serine/threonine-protein kinase PAK 2 (Homo sapiens), sequence (Q13177 whole entry): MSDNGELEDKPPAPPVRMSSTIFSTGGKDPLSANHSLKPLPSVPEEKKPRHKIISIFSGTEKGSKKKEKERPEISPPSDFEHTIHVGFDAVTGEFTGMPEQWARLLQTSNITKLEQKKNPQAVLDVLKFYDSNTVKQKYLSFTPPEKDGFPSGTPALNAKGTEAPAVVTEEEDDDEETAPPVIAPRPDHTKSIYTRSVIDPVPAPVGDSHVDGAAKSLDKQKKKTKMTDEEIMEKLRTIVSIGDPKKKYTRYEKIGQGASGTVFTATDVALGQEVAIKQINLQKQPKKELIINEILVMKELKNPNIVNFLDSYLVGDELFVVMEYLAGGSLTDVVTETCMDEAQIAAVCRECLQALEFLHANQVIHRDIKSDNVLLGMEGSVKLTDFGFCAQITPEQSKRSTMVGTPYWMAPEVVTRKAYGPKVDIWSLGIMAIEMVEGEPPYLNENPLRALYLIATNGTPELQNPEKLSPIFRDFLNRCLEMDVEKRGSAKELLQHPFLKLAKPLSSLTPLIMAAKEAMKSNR

Tyrosine-protein kinase Srms (Homo sapiens), sequence (Q9H3Y6 whole entry): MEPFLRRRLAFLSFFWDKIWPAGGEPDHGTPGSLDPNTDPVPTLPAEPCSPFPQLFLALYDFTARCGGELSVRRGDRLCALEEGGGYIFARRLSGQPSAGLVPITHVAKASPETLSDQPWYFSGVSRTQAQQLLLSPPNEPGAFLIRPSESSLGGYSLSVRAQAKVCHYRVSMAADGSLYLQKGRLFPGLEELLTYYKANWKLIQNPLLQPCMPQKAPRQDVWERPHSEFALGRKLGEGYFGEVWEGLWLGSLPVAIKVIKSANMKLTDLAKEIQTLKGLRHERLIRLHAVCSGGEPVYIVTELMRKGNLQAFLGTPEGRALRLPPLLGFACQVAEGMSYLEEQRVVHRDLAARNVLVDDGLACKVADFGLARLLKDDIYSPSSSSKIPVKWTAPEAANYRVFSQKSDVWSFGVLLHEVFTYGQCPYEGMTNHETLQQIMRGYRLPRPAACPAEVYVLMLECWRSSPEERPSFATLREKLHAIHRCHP
Ribosomal protein S6 kinase alpha-1, sequence (Q15418 whole entry): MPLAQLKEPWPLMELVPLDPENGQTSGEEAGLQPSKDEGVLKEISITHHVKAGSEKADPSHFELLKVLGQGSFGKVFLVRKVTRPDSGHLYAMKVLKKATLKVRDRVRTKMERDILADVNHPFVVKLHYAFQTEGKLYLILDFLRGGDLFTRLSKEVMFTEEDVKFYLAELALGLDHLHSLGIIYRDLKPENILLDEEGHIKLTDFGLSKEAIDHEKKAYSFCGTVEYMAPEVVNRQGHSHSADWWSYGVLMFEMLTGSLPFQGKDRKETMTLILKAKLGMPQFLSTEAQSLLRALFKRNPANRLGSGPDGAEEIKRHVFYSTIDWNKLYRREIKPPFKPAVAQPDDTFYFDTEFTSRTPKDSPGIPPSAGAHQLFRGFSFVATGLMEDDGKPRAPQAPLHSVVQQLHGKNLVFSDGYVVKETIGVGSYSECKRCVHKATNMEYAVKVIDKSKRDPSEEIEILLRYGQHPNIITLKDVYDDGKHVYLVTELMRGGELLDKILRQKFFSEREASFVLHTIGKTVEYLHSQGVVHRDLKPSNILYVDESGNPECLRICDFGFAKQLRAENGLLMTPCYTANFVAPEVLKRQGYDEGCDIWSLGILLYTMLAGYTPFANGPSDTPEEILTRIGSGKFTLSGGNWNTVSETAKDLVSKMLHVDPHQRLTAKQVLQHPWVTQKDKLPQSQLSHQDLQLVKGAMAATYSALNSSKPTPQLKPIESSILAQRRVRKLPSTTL
Casein kinase II subunit alpha' (Homo sapiens), sequence (P19784 whole entry, looked up): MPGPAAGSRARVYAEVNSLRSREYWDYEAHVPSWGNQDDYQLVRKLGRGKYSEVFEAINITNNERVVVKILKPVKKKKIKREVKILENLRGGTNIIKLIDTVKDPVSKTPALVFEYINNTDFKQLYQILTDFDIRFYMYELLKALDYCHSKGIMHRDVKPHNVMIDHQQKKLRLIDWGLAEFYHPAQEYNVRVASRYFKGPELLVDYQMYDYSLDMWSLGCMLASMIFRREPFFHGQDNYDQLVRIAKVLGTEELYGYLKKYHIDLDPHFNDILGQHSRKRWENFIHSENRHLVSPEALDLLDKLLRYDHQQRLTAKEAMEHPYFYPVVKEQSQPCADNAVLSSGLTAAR

`COCC(=O)NC/C=C/c1ccc2ncnc(Nc3ccc(Oc4ccc(C)nc4)c(C)c3)c2c1` [CP-724714]: the % of control came to 47% in assay [1] and 79% in assay [2].
Turning to `N#Cc1cccc(-c2c[nH]c3ncnc(N4CCOCC4)c23)c1`, the % of inhibition in assay [3] is -33%.
In assay [4], `CNC(=O)Nc1ccc(-c2nc(N3CC4CCC(C3)O4)c3cnn(C4CCC5(CC4)OCCO5)c3n2)cc1` showed a % of control of 97%.
On to `Cc1cc([C@@H](C)Nc2ccccc2C(=O)O)c2nc(N3CCOCC3)cc(=O)n2c1` [AZD-6482], for which the % of control in assay [5] is 100%; in assay [6], 73%.
Regarding `C=CC(=O)Nc1cccc(C(=O)Nc2ccc(Nc3cc(-c4[nH]c(SC)nc4C)ccn3)cc2)c1`, the % of control was 95% in assay [7] (at 1 µM), 72% in assay [7] (at 5 µM), 99% in assay [8] (at 1 µM) and 86% in assay [8] (at 5 µM).
